Measurements from US9624238B2, “4H-thieno[3,2-C]chromene-based inhibitors of Notum Pectinacetylesterase and methods of their use” (Lexicon Pharmaceuticals, Inc., priority 2011, dated 2017).

Experiments:
[1] = molecular target: T1, human notum pectinacetyltransferase (Homo sapiens, UniProt Q6P988); assay: Binding assay (OPTS esterase substrate, fluorimetric); format: biochemical
T1 construct: made in house; unpurified conditioned medium used
T1 sequence (Q6P988 20-496): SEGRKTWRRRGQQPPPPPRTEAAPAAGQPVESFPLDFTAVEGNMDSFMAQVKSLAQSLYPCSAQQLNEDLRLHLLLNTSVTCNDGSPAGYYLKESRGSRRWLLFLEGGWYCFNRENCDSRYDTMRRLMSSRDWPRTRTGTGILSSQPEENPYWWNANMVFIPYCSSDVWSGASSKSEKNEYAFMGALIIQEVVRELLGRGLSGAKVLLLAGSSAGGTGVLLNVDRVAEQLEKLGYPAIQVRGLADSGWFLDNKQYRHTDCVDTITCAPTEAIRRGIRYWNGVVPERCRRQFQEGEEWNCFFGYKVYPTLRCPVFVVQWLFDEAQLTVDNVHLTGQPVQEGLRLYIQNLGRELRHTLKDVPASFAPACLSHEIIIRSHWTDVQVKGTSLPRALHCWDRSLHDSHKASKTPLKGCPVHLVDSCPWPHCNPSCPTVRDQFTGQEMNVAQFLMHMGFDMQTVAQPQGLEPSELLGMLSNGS
Protocol: Plasmid containing human notum pectinacetyltransferase in pcDNA3.1(+) vector was transfected into HEK (293 cells and clones were selecting by growing in presence of 400 ug/mL of G418. Condition media from these cells was used for the assay.

[2] = molecular target: T1, human notum pectinacetyltransferase; assay: Reporter assay (CellSensor LEF/TCF-bla FreeStyle 293F cells, Wnt3a and notum conditioned media); format: cell-based
[3] = given as a numeric bound above the legend's range
[4] = given as numeric bound above the legend's highest class

Structure (SMILES) | IC50 ([1]; class symbols) | EC50 ([2]; class symbols) | also measured
O=C(O)C1CCN(C(=O)c2cc3c(s2)-c2cc(F)cc(F)c2SC3)C1 (stereo not shown) | < 1000 nM | < 50 nM | –
O=C1CCN(C(=O)c2cc3c(s2)-c2cc(F)cc(F)c2SC3)C1 | < 50 nM | < 50 nM | –
NC(=O)c1cc2c(s1)-c1ccsc1CC2 | < 50 nM | < 50 nM | –
O=C(O)c1cc2c(s1)-c1ccsc1CC2 | < 50 nM | < 500 nM | –
NC(=O)c1cc2c(s1)-c1ccccc1SCC2 | < 50 nM | < 50 nM | –
COc1ccc2c(c1Br)CCc1cc(C(N)=O)sc1-2 | < 50 nM | < 50 nM | –
O=C(O)c1cc2c(s1)-c1cc(Cl)cc(Br)c1OC2 | < 1000 nM | < 50 nM | –
NC(=O)c1cc2c(s1)-c1cccc(Cl)c1SC2 | < 1000 nM | < 50 nM | –
O=C(O)c1cc2c(s1)-c1cccc(Cl)c1SC2 | < 2000 nM | < 50 nM | –
O=C(O)c1cc2c(s1)-c1cc(F)cc(Cl)c1SC2 | < 50 nM | < 50 nM | –
NC(=O)c1cc2c(s1)-c1cc(F)cc(Cl)c1SC2 | < 100 nM | < 50 nM | –
NC(=O)c1cc2c(s1)-c1cccc(F)c1CC2 | < 50 nM | < 50 nM | –
O=C(O)c1cc2c(s1)-c1cccc(F)c1CC2 | < 50 nM | < 50 nM | –
COc1ccc2c(c1F)CCc1cc(C(=O)O)sc1-2 | < 100 nM | < 50 nM | –
COc1cccc2c1OCc1cc(C(=O)O)sc1-2 | – | < 500 nM | IC50 [1, 3]: > 2000 nM
COc1cccc2c1S(=O)(=O)Cc1cc(C(=O)O)sc1-2 | – | < 1000 nM | IC50 [1, 3]: > 2000 nM
COc1cccc2c1CCc1cc(C(=O)O)sc1-2 | – | < 50 nM | IC50 [1, 4]: > 2000 nM
NC(=O)c1cc2c(s1)-c1ccc(Cl)c(Cl)c1SC2 | < 100 nM | < 50 nM | –
O=C(O)c1cc2c(s1)-c1ccc(Cl)c(Cl)c1SC2 | < 100 nM | < 50 nM | –
NC(=O)c1cc2c(s1)-c1cc(F)c(F)c(F)c1SC2 | < 50 nM | < 50 nM | –
NC(=O)c1cc2c(s1)-c1cc(Cl)cc(Cl)c1SC2 | < 2000 nM | < 50 nM | –
O=C(O)c1cc2c(s1)-c1cc(Cl)cc(Cl)c1SC2 | < 1000 nM | < 50 nM | –
NC(=O)c1cc2c(s1)-c1cc(F)cc(F)c1SC2 | < 50 nM | < 50 nM | –
Cc1ccc(C)c2c1-c1sc(C(=O)O)cc1CS2(=O)=O | – | < 500 nM | IC50 [1, 3]: > 2000 nM

Structure (SMILES) | IC50 ([1]; class symbols) | EC50 ([2]; class symbols) | also measured
Cc1ccc(C)c2c1SCc1cc(C(=O)O)sc1-2 | – | < 50 nM | IC50 [1, 3]: > 2000 nM
O=C(O)c1cc2c(s1)-c1sc(Cl)cc1CC2 | < 50 nM | < 500 nM | –
NC(=O)c1cc2c(s1)-c1ccc(Cl)c(F)c1OC2 | < 50 nM | < 50 nM | –
O=C(O)c1cc2c(s1)-c1ccc(Cl)c(F)c1SC2 | < 50 nM | < 50 nM | –
NC(=O)c1cc2c(s1)-c1ccc(Cl)c(F)c1SC2 | < 50 nM | < 50 nM | –
O=C(O)c1cc2c(s1)-c1cc(F)c(Cl)cc1S(=O)(=O)C2 | < 2000 nM | < 50 nM | –
O=C(O)c1cc2c(s1)-c1cc(F)c(Cl)cc1SC2 | < 100 nM | < 50 nM | –
NC(=O)c1cc2c(s1)-c1cc(F)c(Cl)cc1SC2 | < 100 nM | < 50 nM | –
N#Cc1ccc2c(c1)OCc1cc(C(N)=O)sc1-2 | – | – | IC50 [1, 3]: > 2000 nM; EC50 [2, 3]: > 1000 nM
COc1ccc2c(c1)OCc1cc(C(N)=O)sc1-2 | < 1000 nM | < 100 nM | –
COc1ccc2c(c1)OCc1cc(C(=O)O)sc1-2 | < 2000 nM | < 100 nM | –
NC(=O)c1cc2c(s1)-c1ccc(Cl)c(Cl)c1OCC2 | < 2000 nM | < 50 nM | –
O=C(O)c1cc2c(s1)-c1ccc(Cl)c(Cl)c1OCC2 | < 50 nM | < 50 nM | –
NC(=O)c1cc2c(s1)-c1cc(F)c(F)cc1OC2 | < 100 nM | < 50 nM | –
O=C(O)c1cc2c(s1)-c1cc(F)c(F)cc1OC2 | < 100 nM | < 50 nM | –
Cc1cc(C)c2c(c1)OCc1cc(C(=O)O)sc1-2 | – | < 50 nM | IC50 [1, 3]: > 2000 nM
NC(=O)c1cc2c(s1)-c1cc(Br)ccc1OC2 | < 1000 nM | < 50 nM | –
O=C(O)c1cc2c(s1)-c1cc(Br)ccc1OC2 | < 100 nM | < 50 nM | –
NC(=O)c1cc2c(s1)-c1cc(Cl)c(C(F)(F)F)cc1OC2 | – | < 500 nM | IC50 [1, 3]: > 2000 nM
O=C(O)c1cc2ccc3scc(Cl)c3c2s1 | < 50 nM | < 1000 nM | –
N#Cc1ccc2c(c1)-c1sc(C(=O)O)cc1CC2 | – | < 1000 nM | IC50 [1, 4]: > 2000 nM
N#Cc1cc2c(cc1F)OCc1cc(C(=O)O)sc1-2 | – | < 100 nM | IC50 [1, 3]: > 2000 nM
COc1cc2c(cc1C#N)-c1sc(C(=O)O)cc1CC2 | – | – | IC50 [1, 3]: > 2000 nM; EC50 [2, 3]: > 1000 nM
Cc1cc(F)cc2c1SCc1cc(C(=O)O)sc1-2 | < 1000 nM | < 50 nM | –

Structure (SMILES) | IC50 ([1]; class symbols) | EC50 ([2]; class symbols) | also measured
Cc1cc2c(cc1F)-c1sc(C(=O)O)cc1CS2 | < 100 nM | < 50 nM | –
CC(C)c1ccc2c(c1)-c1sc(C(N)=O)cc1CO2 | – | < 1000 nM | IC50 [1, 3]: > 2000 nM
CC(C)c1ccc2c(c1)-c1sc(C(=O)O)cc1CO2 | – | < 100 nM | IC50 [1, 3]: > 2000 nM
COc1ccc2c(c1)-c1sc(C(=O)O)cc1CS2(=O)=O | – | < 500 nM | IC50 [1, 3]: > 2000 nM
COc1ccc2c(c1)-c1sc(C(=O)O)cc1CC2 | – | < 500 nM | IC50 [1, 4]: > 2000 nM
NC(=O)c1cc2c(s1)-c1cc(Cl)ccc1OCC2 | < 100 nM | < 100 nM | –
O=C(O)c1cc2c(s1)-c1cc(Cl)ccc1OCC2 | < 100 nM | < 100 nM | –
NC(=O)c1cc2c(s1)-c1cc(F)ccc1OCC2 | < 50 nM | < 50 nM | –
O=C(O)c1cc2c(s1)-c1cc(F)ccc1OCC2 | < 50 nM | < 50 nM | –
O=C(NCCn1ccnc1)c1cc2c(s1)-c1cccc(F)c1CC2 | – | < 500 nM | IC50 [1, 3]: > 2000 nM
O=C(NC1CC1)c1cc2c(s1)-c1ccccc1CC2 | – | < 50 nM | IC50 [1, 3]: > 2000 nM
CN(C)C(=O)c1cc2c(s1)-c1ccccc1CC2 | < 1000 nM | < 50 nM | –
O=C(c1cc2c(s1)-c1cc(F)cc(F)c1SC2)N1CCCC1CO (stereo not shown) | < 1000 nM | < 100 nM | –
O=C(c1cc2c(s1)-c1cc(F)cc(F)c1SC2)N1CCC(O)C1 (stereo not shown) | < 50 nM | < 50 nM | –
COC1CCN(C(=O)c2cc3c(s2)-c2cc(F)cc(F)c2SC3)C1 (stereo not shown) | < 100 nM | < 50 nM | –
O=C(c1cc2c(s1)-c1cc(F)cc(F)c1SC2)N1CC[C@H](F)C1 | < 1000 nM | < 50 nM | –
O=C(c1cc2c(s1)-c1c(F)ccc(F)c1SC2)N1CC[C@H](F)C1 | < 100 nM | < 50 nM | –
O=C(c1cc2c(s1)-c1cc(F)c(Cl)cc1SC2)N1CC[C@H](F)C1 | < 1000 nM | < 50 nM | –
CCOC(=O)c1cc2c(s1)-c1cccc(OC)c1CC2 | – | < 500 nM | IC50 [1, 4]: > 2000 nM
CCOC(=O)c1cc2c(s1)-c1ccc(Cl)c(F)c1SC2 | < 1000 nM | < 100 nM | –
CCOC(=O)c1cc2c(s1)-c1cc(OC)ccc1CC2 | – | – | IC50 [1, 4]: > 2000 nM; EC50 [2, 4]: > 1000 nM
O=C(O)C1CCN(C(=O)c2cc3c(s2)-c2c(F)ccc(F)c2SC3)C1 (stereo not shown) | < 100 nM | < 50 nM | –
COC(=O)C1CCN(C(=O)c2cc3c(s2)-c2cc(F)cc(F)c2SC3)C1 (stereo not shown) | < 1000 nM | < 50 nM | –
